In PMC6647401, “Phase I dose-escalation study of F14512, a polyamine-vectorized topoisomerase II inhibitor, in patients with platinum-refractory or resistant ovarian cancer” (Investigational New Drugs, 2018):
Several values for one entry are separate records, joined by “and”; a condition that tells them apart may be missing. Equal entries are not always repeated. Where two headings read alike, the source gives them in different places.

What was measured:
[1] = test system: patients with platinum-refractory or resistant ovarian cancer; type: in vivo
Protocol: This was an open-label, dose-escalation, multicenter, phase I study (EudraCT Number: 2012–005798-29) conducted in 3 investigational sites in France. The 10 mg/m^2/day dose of F14512 was planned as a starting dose (DL1) for escalation in cohorts of 3 to 6 patients until the MTD was reached. Dose escalation was based on a standard titration design by using increments of 33% except from the first dose escalation, which could proceed with a dose increment of 50% in the absence of grade 3 neutropenia and dose limiting toxicity (DLT) observed at DL1. Dose escalation then proceeded except if criteria of MTD were met at DL1. In that instance, the 5 mg/m^2/day dose was tested. All patients in a DL had to be followed for at least 3 weeks (cycle 1) for DLT evaluation before the first patient of the next dose level started treatment. The final decision to proceed to the next DL was made by the safety committee at the dose-escalation meeting. The MTD was defined as the DL at which 2/3 or 2/6 patients experienced a DLT during the first cycle. The Recommended Dose (RD) was the DL immediately below the MTD. A total of 10 evaluable patients had to be treated at the RD.
F14512 was administered as three-hour daily infusion through a central venous catheter for 3 consecutive days every 3 weeks depending on recovery to normal hematopoiesis or recovery of non-hematological toxicities to grade 1. During the first cycle, G- and GM-CSF use was prohibited, however, there were no such constraints in subsequent cycles.
DLTs were defined as one of the following drug-related AEs occurring during the first cycle: grade 4 neutropenia ≥ 7 days, grade 4 thrombocytopenia, or grade 3 thrombocytopenia requiring transfusion and/or associated with bleeding, grade 3 or 4 neutropenia concomitant with grade ≥ 3 infection or febrile neutropenia, any grade ≥ 3 gastrointestinal toxicity including grade ≥ 3 nausea, vomiting or diarrhea if persistent despite optimal antiemetic or anti-diarrheal treatment, any other drug-related grade ≥ 3 toxicity, any drug-related AE that required a delay of ≥ 2 weeks of the administration of cycle 2.

[2] = test system: patients with platinum-refractory or resistant ovarian cancer; assay: Safety: study drug-related adverse events (NCI-CTC v4.0); type: in vivo, human
Protocol: (§1) Toxicities were graded according to National Cancer Institute - Common Toxicity Criteria (NCI - CTC) for adverse events (AEs) (version 4.0). DLT determination criteria and safety assessments are described in the Online Resource. Response was assessed by using GCIG response criteria incorporating RECIST version 1.1 and CA-125. Plasma PK assessments and statistical methods are described in the Online Resource.
Safety was assessed by physical examination on days 1, 2 and 3 during each cycle. Complete blood cell counts were performed on days 4, 6, 8, 10, 12 and 15 of the first cycle, on day 1 of each subsequent cycle and then on a weekly basis thereafter. Serum chemistry was performed weekly during the first cycle and at the end of each cycle thereafter except serum magnesium and potassium which were measured twice weekly during the first week of each cycle and then, weekly for the following weeks. ECGs were performed at baseline and on day 1 of each cycle.

[3] = test system: platinum-refractory or resistant ovarian cancer; assay: Efficacy by GCIG response criteria (RECIST 1.1 and CA-125); type: in vivo, human
Protocol: as §1

[4] = Plasma pharmacokinetics (LC/MS/MS); type: in vivo, human; settings: for AUCinf/dose level of F14512: n = 11, mean [range], three-hour infusion
Protocol: Plasma PK was studied after the administrations on days 1 and 3 of cycle 1 (pre-dose, T0+1.5 h, T0+3 h, T0+3.5 h, T0+4 h, T0+6 h T0+12 h, T0+24 h) and day 1 of cycle 2 (pre-dose, T0+3.5 h, T0+8 h, T0+24 h). F14512, its metabolite F16490 and the metabolite BG (an additional metabolite peak found in human during exploratory metabolite identification analysis and not retrieved in animal species) were assayed in plasma using liquid chromatography coupled with tandem mass spectrometry (LC/MS/MS).
Continuous data were summarized with frequency, median, range, mean, standard deviation and standard error if relevant. Categorical data were presented as frequencies and percentages. 95% confidence intervals (CI) were calculated following the exact method. PK parameters were compared for reproducibility between day 1 and day 3 of cycle 1 for F14512 and its metabolite F16490 using a pairwise t-test or a Wilcoxon test according to the normality of their distribution. Dose-proportionality of PK parameters for F14512 and its metabolite F16490 was investigated by graphical display only. A p value <0.05 was considered statistically significant. Data were analyzed using the SAS® system software version 9.3 for Windows® (Statistical Analysis System, Cary, NC, USA).

human cancer cell lines = test system: human cancer cell lines; parameters: method as in PMID 19047165; settings: in vitro; cited from earlier work
experimental models = test system: experimental models; parameters: method as in PMID 19777159; settings: cited from earlier work
SK-OV3 cancer cells = test system: SK-OV3 cancer cells; parameters: method as in PMID 26404751; settings: cited from earlier work
[5] = test system: PTS(+) A2780R cisplatin-resistant cell line; parameters: method as in PMID 26404751; settings: preliminary studies; cited from earlier work
[6] = test system: relapsed or refractory acute myeloid leukemia (AML); parameters: method as in earlier work; settings: single agent, AML patients at first relapse; cited from earlier work
[7] = test system: platinum-resistant ovarian cancer (PROC); settings: cited from earlier work
[8] = Overall n = 11 (both dose levels), worse grade by patient

For COc1cc([C@@H]2c3cc4c(cc3[C@@H](NC(=O)CNCCCNCCCCNCCCN)[C@H]3COC(=O)[C@H]23)OCO4)cc(OC)c1O [F14512], the “Number of DLTs reported” value ([1]; 5 mg/m^2/day, in 2/6 treated patients) was 2 DLTs, the “Number of DLTs reported” value ([1]; 10 mg/m^2/day, in 3/4 evaluable patients) was 6 DLTs and the “Permanent treatment discontinuation because of study drug-related toxicity” value ([1]; in vivo) was 5 patients. The “Maximum tolerated dose (MTD)” value ([1]; three-hour daily infusion, 3 consecutive days every 3 weeks, both dose levels defined as MTD) was 5 mg/m^2/day and 10 mg/m^2/day, the “Study drug-related AE: Confusional state, Overall grades” value ([2]; 5 mg/m^2/day, n = 6, worse grade by patient) was 1 (16.7) N (%) and the “Grade 4 neutropenia, cycles affected / cycles administered” value ([2]; DL 5 mg/m^2/day) was 14/16. For the same compound, the Neutropenic infection ([2]; DL 5 mg/m^2/day) was 1 patient, the “Grade 4 neutropenia, cycles affected / cycles administered” value ([2]; DL 10 mg/m^2/day) was 12/13 and the “Study drug-related AE: Alopecia, Overall grades” value [2, 8] was 2 (18.2) N (%). The “Study drug-related AE: Any related TESS, Grade 3” value [2, 8] was 6 (54.5) N (%), the “Study drug-related AE: Any related TESS, Grade 4” value [2, 8] was 1 (9.1) N (%) and the “Study drug-related AE: Any related TESS, Overall grades” value [2, 8] was 11 (100.0) N (%). The “Study drug-related AE: Asthenia, Grade 3” value [2, 8] was 2 (18.2) N (%), the “Study drug-related AE: Asthenia, Overall grades” value [2, 8] was 9 (81.8) N (%) and the “Study drug-related AE: Blood and lymphatic system disorders, Grade 3” value [2, 8] was 4 (36.4) N (%). For the same compound, the “Study drug-related AE: Blood and lymphatic system disorders, Grade 4” value [2, 8] was 1 (9.1) N (%), the “Study drug-related AE: Blood and lymphatic system disorders, Overall grades” value [2, 8] was 5 (45.5) N (%) and the “Study drug-related AE: Confusional state, Overall grades” value [2, 8] was 1 (9.1) N (%). For the same compound, the “Study drug-related AE: Constipation, Overall grades” value [2, 8] was 2 (18.2) N (%), the “Study drug-related AE: Diarrhea, Overall grades” value [2, 8] was 2 (18.2) N (%) and the “Study drug-related AE: Dysgeusia, Overall grades” value [2, 8] was 1 (9.1) N (%). The “Study drug-related AE: Dyspepsia, Overall grades” value [2, 8] was 1 (9.1) N (%), the “Study drug-related AE: Febrile neutropenia, Grade 3” value [2, 8] was 4 (36.4) N (%) and the “Study drug-related AE: Febrile neutropenia, Overall grades” value [2, 8] was 4 (36.4) N (%). For the same compound, the “Study drug-related AE: Gastrointestinal disorders, Grade 3” value [2, 8] was 2 (18.2) N (%), the “Study drug-related AE: Gastrointestinal disorders, Overall grades” value [2, 8] was 6 (54.5) N (%) and the “Study drug-related AE: General disorders and administration site conditions, Grade 3” value [2, 8] was 2 (18.2) N (%). For the same compound, the “Study drug-related AE: General disorders and administration site conditions, Overall grades” value [2, 8] was 9 (81.8) N (%), the “Study drug-related AE: Gingivitis, Overall grades” value [2, 8] was 1 (9.1) N (%) and the “Study drug-related AE: Infections and infestations, Overall grades” value [2, 8] was 1 (9.1) N (%). The “Study drug-related AE: Muscle spasms, Overall grades” value [2, 8] was 2 (18.2) N (%), the “Study drug-related AE: Musculoskeletal and connective tissue disorders, Overall grades” value [2, 8] was 2 (18.2) N (%) and the “Study drug-related AE: Myalgia, Overall grades” value [2, 8] was 1 (9.1) N (%). For the same compound, the “Study drug-related AE: Nausea, Grade 3” value [2, 8] was 2 (18.2) N (%), the “Study drug-related AE: Nausea, Overall grades” value [2, 8] was 6 (54.5) N (%) and the “Study drug-related AE: Nervous system disorders, Overall grades” value [2, 8] was 1 (9.1) N (%). The “Study drug-related AE: Neutropenia, Overall grades” value [2, 8] was 1 (9.1) N (%), the “Study drug-related AE: Neutropenic infection, Overall grades” value [2, 8] was 1 (9.1) N (%) and the “Study drug-related AE: Night sweats, Overall grades” value [2, 8] was 1 (9.1) N (%). For the same compound, the “Study drug-related AE: Onycholysis, Overall grades” value [2, 8] was 1 (9.1) N (%), the “Study drug-related AE: Psychiatric disorders, Overall grades” value [2, 8] was 1 (9.1) N (%) and the “Study drug-related AE: Pyrexia, Overall grades” value [2, 8] was 1 (9.1) N (%). The Study drug-related deaths ([2]; all 11 patients) was “no study drug-related deaths”, the Vomiting ([2]; all 11 patients (36%)) was 4 patients and the “Metabolism and nutrition disorder with decreased appetite” value ([2]; all 11 patients (46%)) was 5 patients. The Nausea ([2]; all 11 patients (55%)) was 6 patients, the “Grade 4 neutropenia, share of treated patients” value ([2]; all 11 patients, both dose levels) was 90.9% and the “Study drug-related SAEs per dose level” value ([2]; at each DL (10 and 5 mg/m^2/day)) was 3 patients. For the same compound, the “Grade 4 neutropenia, cycles affected / cycles administered” value ([2]; both dose levels) was 26/29, the Gastrointestinal disorders ([2]; in vivo) was 6 patients and the “General disorders (mainly asthenia)” value ([2]; in vivo) was 9 patients. For the same compound, the “Grade 3 febrile neutropenia” value ([2]; in vivo) was 4 patients, the “Grade 4 neutropenia reported as serious drug-related AE” value ([2]; in vivo) was 1 patient and the “Grade 4 neutropenia, share of cycles administered” value ([2]; in vivo) was 89.7%. The “Study drug-related AE: Skin and subcutaneous tissue disorders, Overall grades” value ([2]; in vivo) was 4 (36.4) N (%), the “Study drug-related AE: Stomatitis, Overall grades” value ([2]; in vivo) was 1 (9.1) N (%) and the “Study drug-related AE: Vomiting, Overall grades” value ([2]; in vivo) was 4 (36.4) N (%). For the same compound, the “Study drug-related serious AEs (SAEs)” value ([2]; in vivo) was 6 patients, the Objective response ([3]; 5 patients evaluable for efficacy, GCIG criteria) was “no objective response” and the “Stable disease (SD) as best overall response” value ([3]; of 5 evaluable patients (40%), both received 9 cycles, 1 at each DL) was 2 patients. For the same compound, the “Dose dependent PK parameters versus dose level” value ([4]; 5 versus 10 mg/m^2/day, no statistical analysis) was “increased with DL”, the Cltot ([4]; D1 of cycle 1, n = 11, mean [range]) was 13.2 [6.17–22.4] L/h and the “AUCinf/dose level of F14512” value ([4]; D1 of cycle 1, plasma) was 152 [67.7–308]. The Cltot ([4]; D3 of cycle 1, n = 11, mean [range]) was 12.9 [5.92–23.1] L/h, the “AUCinf/dose level of F14512” value ([4]; D3 of cycle 1, plasma) was 156 [65.9–270] and the “Difference of PK parameters between Day 1 and Day 3” value ([4]; cycle 1, pairwise t-test or Wilcoxon test) was “not statistically significant”. The “Cell lines with superior anti-proliferative activity” value (human cancer cell lines) was 21/29, the “Tumor response in experimental models” value (experimental models; after intravenous or oral administration) was “complete tumor regression” and the “Experimental models with antitumor efficacy” value (experimental models; in vivo) was 13/19. For the same compound, the “Response rate in experimental models” value (experimental models; in vivo) was 68%, the “Increased sensitivity to cytotoxicity compared to etoposide” value (SK-OV3 cancer cells) was “ten-fold” and the “Antitumor activity in ovarian tumor models” value [5] was “confirmed the antitumor activity”. For the same compound, the Complete remissions [6] was 36%.
In the case of CC(=O)O[C@H]1C(=O)[C@@]2(C)[C@H]([C@H](OC(=O)c3ccccc3)[C@]3(O)C[C@H](OC(=O)[C@H](O)[C@@H](NC(=O)c4ccccc4)c4ccccc4)C(C)=C1C3(C)C)[C@]1(OC(C)=O)CO[C@@H]1C[C@@H]2O [paclitaxel], the Progression free survival [7] is listed as 2–6 months and the Response rates [7] is listed as 0%–30%.
